The nature of data set [1]: Accumulation of phosphoric acid derivatives investigated as technetium-99m diagnostic agents (bone, liver, RES). The conditions noted are these: in vivo. The text has this: It is possible to use phosphoric acid derivatives, particularly organic phosphonic acid derivatives, for bone scintigraphy. Many compounds have been investigated in the search for derivatives suitable as a technetium-99m diagnostic agent for bone.

A short description of data set [2]: Example 5: organ distribution of 99mTc ETP in rats. Format: in vivo, Sprague-Dawley rats. The conditions noted are these: 30 min, intravenous. As to the method: 1.40 g of ethane-1,1,2,2-tetraphosphonic acid are dissolved in about 20 ml of double-distilled water and the pH of the solution is adjusted to 7.0 using 1N sodium hydroxide solution. The total volume of this solution is adjusted to 100 ml with double-distilled water and, while excluding oxygen, 11 mg of SnCl2.2H2 O in 5 ml of aqueous solution are added. The clear solution thus obtained is sterilized by filtration and filled, in 0.2 ml portions, into snap-closure bottles which have previously been cooled with liquid nitrogen, and is then freeze-dried. The contents are covered with nitrogen and the bottles are closed. A bottle then contains about 3.3 mg of Na salt of ETP (corresponding to about 2.7 mg of ETP) and about 11 μg of tin(II).
The substance is labeled with ^99m Tc by the addition of 5 ml of physiologic saline which contains 1.5 mCi of technetium-99m-pertechnetate.After a reaction time of 15 minutes, three Sprague-Dawley rats each received 0.1 ml of this solution by intravenous injection. 30 minutes later, the animals were sacrificed and the organ distribution of ^99m Tc ETP was measured. The following figures (as percentage of the dose administered) were found from this: […]

Data set [3] can be described thus: Organ distribution of 99mTc-labeled substances in rats 30 minutes after injection as a function of the amount of substance administered. The class given is in vivo. The conditions noted are these: for Blood/ml / Kidneys / Liver / Lung / Remainder of body / Spleen / Thyroid: 30 min after injection, n = 3. As to the method:
Assuming that 2-20 mg of TPB, ETP, PTP or phytate are administered to humans, and assuming that the weight of human is 80 kg, this corresponds to an amount administered of 25-250 μg/kg of body weight. Calculating on the basis of the body weight of rats weighing 200 g, then administration of 5-50 μg of TPB, ETP, PTP or phytate per rat exactly reflects the relationships.
Organ distribution of ^99m Tc TPB, ^99m TC ETP and ^99m Tc
phytate in rats (n = 3) 30
minutes after injection as a function of the amount of substance
(all data as a percentage of the amount of activity administered)

Data set [4] is described as follows: Comparison of 99mTc TPB, 99mTc PTP and 99mTc phytate after intravenous injection to dogs. The following applies: intravenous; dogs; compared with phytate. The class given is in vivo.
Data set [5] in a line: Example 3: distribution of activity over the organs in rats, lyophilizate. The conditions noted are these: 30 min. The class given is in vivo, Sprague-Dawley rats. As to the method: 8 g of sodium 2,4,4-triphosphonobutyrate are dissolved in about 60 ml of double-distilled water, the pH of the solution then being 8.5. After the pH had been adjusted to 7 with 1N HCl, 120 mg of SnCl2.2H2 O in 3 ml of 1N HCl were added, the pH was adjusted to 6 using 0.1N NaOH, and the solution was made up to 160 ml with double-distilled water. All operations should be carried out under a protective atmosphere of nitrogen gas. The solution thus obtained is freeze-dried in individual 1 ml portions in snap-closure bottles which have previously been frozen with liquid nitrogen. The contents are covered with nitrogen and the bottles are closed.
After storage for some weeks, the lyophilizate is dissolved in 10 ml of physiologic saline containing 2 mCi of technetium-99m-pertechnetate. After 30 minutes, 3 Sprague-Dawley rats (about 200 g) each receive 0.1 ml of this solution injected into the femoral vein, and 30 minutes later the animals are sacrificed with ether and the distribution of activity over the organs is determined. The following mean figures (as percentage of the dose administered) result: […]

Setting [6] is: second amount column (printed 50 μg).
Setting [7] is: third amount column (printed 50 μg).
Setting [8] is: all amounts of substance investigated.

As to `O=P(O)(O)C(CCC(P(=O)(O)O)P(=O)(O)O)P(=O)(O)O` [BTP, butane-1,1,4,4-tetraphosphonic acid], in data set [1], the accumulation in bone entry is on record as “virtually not at all” and the “accumulation in the liver” value is given as “very preferentially accumulated in the liver”.

Take `O=P(O)(O)C(C(P(=O)(O)O)P(=O)(O)O)P(=O)(O)O` [ETP, ethane-1,1,2,2-tetraphosphonic acid]: the total recovered activity in data set [2] was determined as 104.5%. For the same compound, in data set [2] (three rats), the Blood/ml is 0.02 percentage of the dose adminis, the Kidneys was 0.12 percentage of the dose adminis, the Liver is reported as 96.2 percentage of the dose adminis and the Remainder of body is 7.8 percentage of the dose adminis. Also, in data set [2] (three rats), the Spleen was 2.1 percentage of the dose adminis, the Thyroid is given as 0.03 percentage of the dose adminis and the lungs is 0.18 percentage of the dose adminis. Moreover, in data set [3] ((50 μg)), the Blood/ml is recorded as 0.02 percentage of the amount of ac, the Kidneys was 0.12 percentage of the amount of activity administered, the Liver was 96.2 percentage of the amount of activity administered and the Lung is reported as 0.18 percentage of the amount of activity administered. Moreover, in data set [3] ((50 μg)), the Remainder of body is recorded as 7.8 percentage of the amount of activity administered, the Spleen is reported as 2.10 percentage of the amount of activity administered and the Thyroid is given as 0.03 percentage of the amount of activity administered. In addition, in data set [3] (setting [6]), the Blood/ml is 0.04 percentage of the amount of ac, the Kidneys is 0.16 percentage of the amount of activity administered, the Liver is reported as 95.2 percentage of the amount of activity administered and the Lung is reported as 0.21 percentage of the amount of activity administered. Besides, in data set [3] (setting [6]), the Remainder of body is recorded as 11.2 percentage of the amount of activity administered, the Spleen was 2.13 percentage of the amount of activity administered and the Thyroid is recorded as 0.03 percentage of the amount of activity administered. For the same compound, in data set [3] (setting [7]), the Blood/ml is on record as 0.04 percentage of the amount of ac, the Kidneys is on record as 0.26 percentage of the amount of activity administered, the Liver is listed as 93.6 percentage of the amount of activity administered and the Lung was 0.32 percentage of the amount of activity administered. Further, in data set [3] (setting [7]), the Remainder of body is recorded as 10.4 percentage of the amount of activity administered, the Spleen is reported as 1.30 percentage of the amount of activity administered and the Thyroid is recorded as 0.04 percentage of the amount of activity administered. Further, in data set [3] (setting [8]), the “accumulation in the liver and spleen compared with phytate” value was “markedly higher than that of phytate”; the “accumulation of activity in the kidneys, blood, femur and remainder of the body compared with phytate” value is reported as “clearly lower than with phytate”. Moreover, the “suitability as diagnostic agent for visualization of RES-containing organs compared with 99mTc phytate” value in data set [3] (deduction from the animal experiments) is recorded as “unambiguously superior”. Further, in data set [1], the accumulation in bone entry is “virtually not at all” and the “accumulation in the liver” value is “very preferentially accumulated in the liver”. In data set [4], the “decrease in activity via the liver after accumulation in the liver is complete” value was “slower”.

Regarding `O=C([O-])C(CC(P(=O)(O)O)P(=O)(O)O)P(=O)(O)O.[Na+]` (stereo not drawn) [sodium 2,4,4-triphosphonobutyrate], in data set [5] (femoral vein, mean of 3 rats), the Blood/ml is listed as 0.03 percentage of the dose adminis, the Kidneys is reported as 0.08 percentage of the dose adminis, the Liver is given as 96.2 percentage of the dose adminis and the Remainder of body is recorded as 4.9 percentage of the dose adminis. Besides, in data set [5] (femoral vein, mean of 3 rats), the Spleen is recorded as 1.9 percentage of the dose adminis, the Thyroid is recorded as 0.03 percentage of the dose adminis and the lungs is given as 0.24 percentage of the dose adminis. Moreover, in data set [5] (related to the dose administered), the recovered activity total worked out at 103.4%.

For the origin of these results see patent US4693884A, “Technetium-99m triphosphonates and tetraphosphonates for the scintigraphic visualization of res-containing organs and lymph vessels, and a process for their preparation” (Hoechst Aktiengesellschaft, priority 1982, dated 1987).
